Series [1] has as its system respiratory RNA viruses. Description: Action of antioxidants against respiratory RNA viruses (summary statement). It counts as cell-based.
Series [2] relates to HRV2. Briefly: Cell Titer 96 cell proliferation assay, viability of HRV2-infected HeLa cells. Particulars: for protective effect during viral proliferation: determined as described in Example 3, HRV2-infected HeLa cells. It counts as cell-based, human rhinovirus. An excerpt: A cell proliferation assay was done to test the effect of PDTC or DDTC on the viability of the cells during a viral infection.

Series [3] relates to HRV2. Description: Crystal violet staining of cell lawn of HRV2-infected HeLa cells. The note with it: HRV2 100 TCID50 per cell, compound added 1 hour after infection, stained after 24 hours. In kind it is cell-based, human rhinovirus.
The subject of series [4] is influenza virus. The note with it: Knobil et al., Am. J. Physiol. 1998; cited from earlier work.
Series [5] relates to human immunodeficiency virus. The note with it: asymptomatic and minimally symptomatic HIV patients, HIV87 Study Group 1993; cited from earlier work.
The subject of series [6] is HeLa cells. Description: Cell proliferation assay on uninfected HeLa cells (toxicity control).
For series [7], the system named is mengovirus virions. Particulars: Calvert, Interferon Research 1990; cited from earlier work.

On to `OCCS` [β-mercaptoethanol], for which, in series [1], the “action against respiratory RNA viruses” value was “no action at all”. Further, the “protective effect during viral proliferation” value in series [2] is reported as “none of these antioxidants had any protective effect”.
Regarding `Cc1c(C)c2c(c(C)c1O)CCC(C)(C(=O)O)O2` (centres unmarked) [Trolox], the “protective effect during viral proliferation” value in series [2] is “none of these antioxidants had any protective effect”.
In the case of `CC(=O)N[C@@H](CS)C(=O)O` [NAC, N-acetylcysteine, reference compound], the “prevention of destruction of the cell lawn by HRV2 infection” value in series [3] is given as “not”. Further, the “action against respiratory RNA viruses” value in series [1] is on record as “no action at all”. For the same compound, the “inhibition of influenza virus infection or replication” value in series [4] is recorded as “neither NAC nor PDTC inhibits influenza virus infection or replication”.
As to `O=C1O[C@H]([C@@H](O)CO)C(O)=C1O` [Vitamin C], the “action against respiratory RNA viruses” value in series [1] is “no action at all”. Besides, the “protective effect during viral proliferation” value in series [2] is listed as “none of these antioxidants had any protective effect”.
On to `CCN(CC)C(=S)S` [dithiocarb], for which the “cure or improvement of AIDS patients” value in series [5] is on record as “does not cause cure or improvement of the patients”.
Turning to `CCN(CC)C(=S)S` [DDTC, N, N-diethyldithiocarbamate], the “toxicity of the concentration used to inhibit the viral infections” value in series [6] (HeLa cells) is recorded as “exhibits no toxicity”. Also, the “effects on uninfected cells (viability)” value in series [6] (compound alone, uninfected HeLa cells) is given as “only minor effects on uninfected cells”. Also, the “viability of infected cells” value in series [2] (HeLa cells, HRV2 20 TCID50/cell, 24 hours after infection, even slight concentrations) is “significantly increased”. Further, in series [7], the “action on mengovirus virions” value is “inactivates mengovirus virions”.
In the case of Vitamin E, the “action against respiratory RNA viruses” value in series [1] was “no action at all”.

Values taken from patent US7282599B2, “Dithiocarbamate antiviral agents and methods of using same” (Avir Green Hills Biotechnology Research Devlopment Trade AG, priority 2001, dated 2007).
